Measured values reported in PubChem BioAssay AID1963962 (Molecular Pharmacology Branch, DTP, NCI, 2024).

Test system: 967376-340-R-J2-PDC multicell spheroid viability
Test: Anticancer human tumor 967376-340-R-J2-PDC patient-derived colon adenocarcinoma cell line growth inhibition [PI3K]
Details: for IC50: curve of first compound; for viability, T/C: stronger effect = lower value
Outline: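 Tumor cells grown as multi-cell spheroids with HUVEC endothelial cells and MSC fibroblast-like stroma were treated with targeted agents combined with inavolisib, alpelisib, duvelisib or copanlisib. Doses fell in half-log steps from near clinical Cmax, else from 10 microM. Viability was measured.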

[1] = second compound 0.00316 µM, first compound 0.0316 µM
[2] = second compound 0.00316 µM, first compound 0.1 µM
[3] = second compound 0.01 µM, first compound 0.0316 µM
[4] = second compound 0.01 µM, first compound 0.1 µM
[5] = second compound 0.0316 µM, first compound 0.0316 µM
[6] = second compound 0.0316 µM, first compound 0.1 µM
[7] = second compound 0.1 µM, first compound 0.0316 µM
[8] = second compound 0.1 µM, first compound 0.1 µM
[9] = second compound 0.316 µM, first compound 0.0316 µM
[10] = second compound 0.316 µM, first compound 0.1 µM
[11] = second compound 1 µM, first compound 0.0316 µM
[12] = second compound 1 µM, first compound 0.1 µM
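Further: spheroids exposed to agents for 7 days before read-out.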
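Wherever viability, T/C is given: luminescence used as surrogate of cell viability.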

Cn1ncc(Cl)c1-c1cc(C(=O)NC(CN)Cc2cccc(F)c2)sc1Cl (centres undefined) + COc1c(OCCCN2CCOCC2)ccc2c3n(c(=NC(=O)c4cnc(N)nc4)nc12)CCN3
IC50 (second compound 0.00316 µM): > 10000 nM | IC50 (second compound 0.01 µM): > 10000 nM | IC50 (second compound 0.0316 µM): 4960 nM | IC50 (second compound 0.1 µM): > 10000 nM | IC50 (second compound 0.316 µM): 149 nM | IC50 (second compound 1 µM): < 31.6 nM | viability, T/C [1]: 93.7% | viability, T/C [2]: 107% | viability, T/C (second compound 0.00316 µM, first compound 0.316 µM): 73.8% | viability, T/C (second compound 0.00316 µM, first compound 1 µM): 94.8% | viability, T/C (second compound 0.00316 µM, first compound 3.16 µM): 84.8% | viability, T/C (second compound 0.00316 µM, first compound 10 µM): 60.2% | viability, T/C [3]: 88.5% | viability, T/C [4]: 106% | viability, T/C (second compound 0.01 µM, first compound 0.316 µM): 76.2% | viability, T/C (second compound 0.01 µM, first compound 1 µM): 84.2% | viability, T/C (second compound 0.01 µM, first compound 3.16 µM): 67.3% | viability, T/C (second compound 0.01 µM, first compound 10 µM): 64.7% | viability, T/C [5]: 84.1% | viability, T/C [6]: 80.7% | viability, T/C (second compound 0.0316 µM, first compound 0.316 µM): 70.5% | viability, T/C (second compound 0.0316 µM, first compound 1 µM): 80.5% | viability, T/C (second compound 0.0316 µM, first compound 3.16 µM): 57.8% | viability, T/C (second compound 0.0316 µM, first compound 10 µM): 37.8% | viability, T/C [7]: 76.4% | viability, T/C [8]: 59.3% | viability, T/C (second compound 0.1 µM, first compound 0.316 µM): 77.9% | viability, T/C (second compound 0.1 µM, first compound 1 µM): 67.8% | viability, T/C (second compound 0.1 µM, first compound 3.16 µM): 52.8% | viability, T/C (second compound 0.1 µM, first compound 10 µM): 56.5% | viability, T/C [9]: 59.1% | viability, T/C [10]: 55.3% | viability, T/C (second compound 0.316 µM, first compound 0.316 µM): 45.1% | viability, T/C (second compound 0.316 µM, first compound 1 µM): 36% | viability, T/C (second compound 0.316 µM, first compound 3.16 µM): 52.5% | viability, T/C (second compound 0.316 µM, first compound 10 µM): 36.6% | viability, T/C [11]: 40.4% | viability, T/C [12]: 46.5% | viability, T/C (second compound 1 µM, first compound 0.316 µM): 30.9% | viability, T/C (second compound 1 µM, first compound 1 µM): 39.7% | viability, T/C (second compound 1 µM, first compound 3.16 µM): 31.4% | viability, T/C (second compound 1 µM, first compound 10 µM): 24.4%

Cn1ncnc1[C@H]1c2n[nH]c(=O)c3cc(F)cc(c23)N[C@@H]1c1ccc(F)cc1 + COc1c(OCCCN2CCOCC2)ccc2c3n(c(=NC(=O)c4cnc(N)nc4)nc12)CCN3
IC50 (second compound 0.00316 µM): > 100 nM | IC50 (second compound 0.01 µM): > 100 nM | IC50 (second compound 0.0316 µM): > 100 nM | IC50 (second compound 0.1 µM): > 100 nM | IC50 (second compound 0.316 µM): < 0.316 nM | IC50 (second compound 1 µM): < 0.316 nM | viability, T/C (second compound 0.00316 µM, first compound 0.000316 µM): 102% | viability, T/C (second compound 0.00316 µM, first compound 0.001 µM): 95% | viability, T/C (second compound 0.00316 µM, first compound 0.00316 µM): 76.1% | viability, T/C (second compound 0.00316 µM, first compound 0.01 µM): 97% | viability, T/C [1]: 88.7% | viability, T/C [2]: 105% | viability, T/C (second compound 0.01 µM, first compound 0.000316 µM): 76.6% | viability, T/C (second compound 0.01 µM, first compound 0.001 µM): 94.9% | viability, T/C (second compound 0.01 µM, first compound 0.00316 µM): 81.1% | viability, T/C (second compound 0.01 µM, first compound 0.01 µM): 73.9% | viability, T/C [3]: 80.5% | viability, T/C [4]: 87.9% | viability, T/C (second compound 0.0316 µM, first compound 0.000316 µM): 85.2% | viability, T/C (second compound 0.0316 µM, first compound 0.001 µM): 90.4% | viability, T/C (second compound 0.0316 µM, first compound 0.00316 µM): 74.5% | viability, T/C (second compound 0.0316 µM, first compound 0.01 µM): 70.9% | viability, T/C [5]: 66.8% | viability, T/C [6]: 73.4% | viability, T/C (second compound 0.1 µM, first compound 0.000316 µM): 53.3% | viability, T/C (second compound 0.1 µM, first compound 0.001 µM): 70.4% | viability, T/C (second compound 0.1 µM, first compound 0.00316 µM): 56.5% | viability, T/C (second compound 0.1 µM, first compound 0.01 µM): 53.5% | viability, T/C [7]: 62.5% | viability, T/C [8]: 56.4% | viability, T/C (second compound 0.316 µM, first compound 0.000316 µM): 42.1% | viability, T/C (second compound 0.316 µM, first compound 0.001 µM): 40.9% | viability, T/C (second compound 0.316 µM, first compound 0.00316 µM): 44.6% | viability, T/C (second compound 0.316 µM, first compound 0.01 µM): 36.2% | viability, T/C [9]: 52.7% | viability, T/C [10]: 43.2% | viability, T/C (second compound 1 µM, first compound 0.000316 µM): 27.8% | viability, T/C (second compound 1 µM, first compound 0.001 µM): 26.8% | viability, T/C (second compound 1 µM, first compound 0.00316 µM): 39.8% | viability, T/C (second compound 1 µM, first compound 0.01 µM): 55.2% | viability, T/C [11]: 32.9% | viability, T/C [12]: 26.9%
